# In PMC9299836 (eLife, 2022):
# Molecular target: mGluR2 (Mus musculus, UniProt Q14BI2, A548F)
# Assay: smFRET of azi-CRD: cross-correlation of donor and acceptor intensities (CRD dynamics) and HMM transition density plots;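 also: single detergent-solubilized receptors captured on antibody-coated flow cells via C-terminal FLAG-tag, imaged by smFRET, donor and acceptor intensity traces from three independent biological replicates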
# Conditions: for CRD dynamics by cross-correlation of donor and acceptor intensities: azi-CRD
# Sequence of mGluR2 (Q14BI2 19-872 A548F): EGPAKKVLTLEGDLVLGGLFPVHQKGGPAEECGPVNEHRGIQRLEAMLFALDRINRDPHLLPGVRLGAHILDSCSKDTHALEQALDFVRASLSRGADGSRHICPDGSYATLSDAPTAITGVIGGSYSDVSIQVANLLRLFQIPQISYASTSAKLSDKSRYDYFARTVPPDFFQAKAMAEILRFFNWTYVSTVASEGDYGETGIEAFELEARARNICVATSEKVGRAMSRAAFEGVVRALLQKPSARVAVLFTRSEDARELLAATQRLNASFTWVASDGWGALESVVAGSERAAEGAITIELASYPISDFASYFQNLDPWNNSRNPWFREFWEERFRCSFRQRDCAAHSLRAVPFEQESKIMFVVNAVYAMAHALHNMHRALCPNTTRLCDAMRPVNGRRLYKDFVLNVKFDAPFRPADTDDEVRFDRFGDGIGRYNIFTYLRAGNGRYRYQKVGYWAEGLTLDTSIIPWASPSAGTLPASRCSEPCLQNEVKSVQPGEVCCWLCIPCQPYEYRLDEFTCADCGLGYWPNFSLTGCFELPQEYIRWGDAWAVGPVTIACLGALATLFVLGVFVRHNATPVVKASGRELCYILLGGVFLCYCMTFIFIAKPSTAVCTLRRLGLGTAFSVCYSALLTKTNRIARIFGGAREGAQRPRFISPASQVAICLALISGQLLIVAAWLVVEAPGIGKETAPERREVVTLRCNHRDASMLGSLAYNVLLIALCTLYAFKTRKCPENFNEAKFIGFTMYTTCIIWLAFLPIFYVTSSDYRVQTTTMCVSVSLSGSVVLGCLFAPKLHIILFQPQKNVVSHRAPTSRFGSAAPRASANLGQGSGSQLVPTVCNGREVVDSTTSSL
substance,measurement,setting,value
MNI-137,"Cross Correlation, Mean","0μM Glutamate + GPT/Pyruvate + 5μM MNI-137, Time 0.2 s",-0.028
same,"Cross Correlation, Mean","0μM Glutamate + GPT/Pyruvate + 5μM MNI-137, Time 0.25 s",-0.03232
same,"Cross Correlation, Mean","0μM Glutamate + GPT/Pyruvate + 5μM MNI-137, Time 0.3 s",-0.03245
same,"Cross Correlation, Mean","0μM Glutamate + GPT/Pyruvate + 5μM MNI-137, Time 0.35 s",-0.03285
same,"Cross Correlation, Mean","0μM Glutamate + GPT/Pyruvate + 5μM MNI-137, Time 0.4 s",-0.02992
same,"Cross Correlation, Mean","0μM Glutamate + GPT/Pyruvate + 5μM MNI-137, Time 0.45 s",-0.02563
same,"Cross Correlation, Mean","0μM Glutamate + GPT/Pyruvate + 5μM MNI-137, Time 0.5 s",-0.0232
same,"Cross Correlation, Mean","0μM Glutamate + GPT/Pyruvate + 5μM MNI-137, Time 0.55 s",-0.0254
same,"Cross Correlation, Mean","0μM Glutamate + GPT/Pyruvate + 5μM MNI-137, Time 0.6 s",-0.02539
same,"Cross Correlation, Mean","0μM Glutamate + GPT/Pyruvate + 5μM MNI-137, Time 0.65 s",-0.02363
same,"Cross Correlation, Mean","0μM Glutamate + GPT/Pyruvate + 5μM MNI-137, Time 0.7 s",-0.02361
same,"Cross Correlation, Mean","0μM Glutamate + GPT/Pyruvate + 5μM MNI-137, Time 0.8 s",-0.02074
same,"Cross Correlation, Mean","0μM Glutamate + GPT/Pyruvate + 5μM MNI-137, Time 0.85 s",-0.0233
same,"Cross Correlation, Mean","0μM Glutamate + GPT/Pyruvate + 5μM MNI-137, Time 0.9 s",-0.02522
same,"Cross Correlation, Mean","0μM Glutamate + GPT/Pyruvate + 5μM MNI-137, Time 0.95 s",-0.02254
same,"Cross Correlation, Mean","0μM Glutamate + GPT/Pyruvate + 5μM MNI-137, Time 1 s",-0.02263
same,"Cross Correlation, Mean","0μM Glutamate + GPT/Pyruvate + 5μM MNI-137, Time 1.05 s",-0.01654
same,"Cross Correlation, Mean","0μM Glutamate + GPT/Pyruvate + 5μM MNI-137, Time 1.1 s",-0.01694
same,"Cross Correlation, Mean","0μM Glutamate + GPT/Pyruvate + 5μM MNI-137, Time 1.15 s",-0.0245
same,"Cross Correlation, Mean","0μM Glutamate + GPT/Pyruvate + 5μM MNI-137, Time 1.2 s",-0.02011
same,"Cross Correlation, Mean","0μM Glutamate + GPT/Pyruvate + 5μM MNI-137, Time 1.25 s",-0.02479
same,"Cross Correlation, Mean","0μM Glutamate + GPT/Pyruvate + 5μM MNI-137, Time 1.3 s",-0.01941
same,"Cross Correlation, Mean","0μM Glutamate + GPT/Pyruvate + 5μM MNI-137, Time 1.35 s",-0.01897
same,"Cross Correlation, Mean","0μM Glutamate + GPT/Pyruvate + 5μM MNI-137, Time 1.4 s",-0.02381
same,"Cross Correlation, Mean","0μM Glutamate + GPT/Pyruvate + 5μM MNI-137, Time 1.45 s",-0.01493
same,"Cross Correlation, Mean","0μM Glutamate + GPT/Pyruvate + 5μM MNI-137, Time 1.5 s",-0.01697
same,"Cross Correlation, Mean","0μM Glutamate + GPT/Pyruvate + 5μM MNI-137, Time 1.6 s",-0.01709
same,"Cross Correlation, Mean","0μM Glutamate + GPT/Pyruvate + 5μM MNI-137, Time 1.65 s",-0.01348
same,"Cross Correlation, Mean","0μM Glutamate + GPT/Pyruvate + 5μM MNI-137, Time 1.7 s",-0.01427
same,"Cross Correlation, Mean","0μM Glutamate + GPT/Pyruvate + 5μM MNI-137, Time 1.75 s",-0.0161
same,"Cross Correlation, Mean","0μM Glutamate + GPT/Pyruvate + 5μM MNI-137, Time 1.8 s",-0.01106
same,"Cross Correlation, Mean","0μM Glutamate + GPT/Pyruvate + 5μM MNI-137, Time 1.85 s",-0.00832
same,"Cross Correlation, Mean","0μM Glutamate + GPT/Pyruvate + 5μM MNI-137, Time 1.9 s",-0.01466
same,"Cross Correlation, Mean","15μM Glutamate + 5μM MNI-137, Time 0.2 s",-0.09437
same,"Cross Correlation, Mean","15μM Glutamate + 5μM MNI-137, Time 0.25 s",-0.08281
same,"Cross Correlation, Mean","15μM Glutamate + 5μM MNI-137, Time 0.3 s",-0.0732
same,"Cross Correlation, Mean","15μM Glutamate + 5μM MNI-137, Time 0.35 s",-0.06697
same,"Cross Correlation, Mean","15μM Glutamate + 5μM MNI-137, Time 0.4 s",-0.05965
same,"Cross Correlation, Mean","15μM Glutamate + 5μM MNI-137, Time 0.45 s",-0.05857
same,"Cross Correlation, Mean","15μM Glutamate + 5μM MNI-137, Time 0.5 s",-0.05707
same,"Cross Correlation, Mean","15μM Glutamate + 5μM MNI-137, Time 0.55 s",-0.05428
same,"Cross Correlation, Mean","15μM Glutamate + 5μM MNI-137, Time 0.6 s",-0.04785
same,"Cross Correlation, Mean","15μM Glutamate + 5μM MNI-137, Time 0.65 s",-0.04876
same,"Cross Correlation, Mean","15μM Glutamate + 5μM MNI-137, Time 0.7 s",-0.04192
same,"Cross Correlation, Mean","15μM Glutamate + 5μM MNI-137, Time 0.75 s",-0.0438
same,"Cross Correlation, Mean","15μM Glutamate + 5μM MNI-137, Time 0.8 s",-0.04286
same,"Cross Correlation, Mean","15μM Glutamate + 5μM MNI-137, Time 0.85 s",-0.04147
same,"Cross Correlation, Mean","15μM Glutamate + 5μM MNI-137, Time 0.9 s",-0.0389
same,"Cross Correlation, Mean","15μM Glutamate + 5μM MNI-137, Time 0.95 s",-0.03855
same,"Cross Correlation, Mean","15μM Glutamate + 5μM MNI-137, Time 1 s",-0.03542
same,"Cross Correlation, Mean","15μM Glutamate + 5μM MNI-137, Time 1.05 s",-0.03118
same,"Cross Correlation, Mean","15μM Glutamate + 5μM MNI-137, Time 1.1 s",-0.03249
same,"Cross Correlation, Mean","15μM Glutamate + 5μM MNI-137, Time 1.15 s",-0.02794
same,"Cross Correlation, Mean","15μM Glutamate + 5μM MNI-137, Time 1.2 s",-0.03365
same,"Cross Correlation, Mean","15μM Glutamate + 5μM MNI-137, Time 1.25 s",-0.03207
same,"Cross Correlation, Mean","15μM Glutamate + 5μM MNI-137, Time 1.3 s",-0.02844
same,"Cross Correlation, Mean","15μM Glutamate + 5μM MNI-137, Time 1.35 s",-0.02868
same,"Cross Correlation, Mean","15μM Glutamate + 5μM MNI-137, Time 1.4 s",-0.02437
same,"Cross Correlation, Mean","15μM Glutamate + 5μM MNI-137, Time 1.45 s",-0.02342
same,"Cross Correlation, Mean","15μM Glutamate + 5μM MNI-137, Time 1.55 s",-0.02529
same,"Cross Correlation, Mean","15μM Glutamate + 5μM MNI-137, Time 1.6 s",-0.02454
same,"Cross Correlation, Mean","15μM Glutamate + 5μM MNI-137, Time 1.65 s",-0.02035
same,"Cross Correlation, Mean","15μM Glutamate + 5μM MNI-137, Time 1.75 s",-0.02381
same,"Cross Correlation, Mean","15μM Glutamate + 5μM MNI-137, Time 1.8 s",-0.02039
same,"Cross Correlation, Mean","15μM Glutamate + 5μM MNI-137, Time 1.85 s",-0.02364
same,"Cross Correlation, Mean","15μM Glutamate + 5μM MNI-137, Time 1.9 s",-0.02018
same,"Cross Correlation, Mean","15μM Glutamate + 5μM MNI-137, Time 1.95 s",-0.01877
same,"Cross Correlation, Mean","1000μM Glutamate + 5μM MNI-137, Time 0.2 s",-0.2112
same,"Cross Correlation, Mean","1000μM Glutamate + 5μM MNI-137, Time 0.25 s",-0.1919
same,"Cross Correlation, Mean","1000μM Glutamate + 5μM MNI-137, Time 0.3 s",-0.1758
same,"Cross Correlation, Mean","1000μM Glutamate + 5μM MNI-137, Time 0.35 s",-0.1629
same,"Cross Correlation, Mean","1000μM Glutamate + 5μM MNI-137, Time 0.4 s",-0.1514
same,"Cross Correlation, Mean","1000μM Glutamate + 5μM MNI-137, Time 0.45 s",-0.1426
same,"Cross Correlation, Mean","1000μM Glutamate + 5μM MNI-137, Time 0.5 s",-0.1307
same,"Cross Correlation, Mean","1000μM Glutamate + 5μM MNI-137, Time 0.55 s",-0.1241
same,"Cross Correlation, Mean","1000μM Glutamate + 5μM MNI-137, Time 0.6 s",-0.1177
same,"Cross Correlation, Mean","1000μM Glutamate + 5μM MNI-137, Time 0.65 s",-0.1093
same,"Cross Correlation, Mean","1000μM Glutamate + 5μM MNI-137, Time 0.7 s",-0.1013
same,"Cross Correlation, Mean","1000μM Glutamate + 5μM MNI-137, Time 0.75 s",-0.09952
same,"Cross Correlation, Mean","1000μM Glutamate + 5μM MNI-137, Time 0.8 s",-0.09295
same,"Cross Correlation, Mean","1000μM Glutamate + 5μM MNI-137, Time 0.85 s",-0.08726
same,"Cross Correlation, Mean","1000μM Glutamate + 5μM MNI-137, Time 0.9 s",-0.08538
same,"Cross Correlation, Mean","1000μM Glutamate + 5μM MNI-137, Time 0.95 s",-0.07938
same,"Cross Correlation, Mean","1000μM Glutamate + 5μM MNI-137, Time 1 s",-0.07503
same,"Cross Correlation, Mean","1000μM Glutamate + 5μM MNI-137, Time 1.05 s",-0.07213
same,"Cross Correlation, Mean","1000μM Glutamate + 5μM MNI-137, Time 1.1 s",-0.06374
same,"Cross Correlation, Mean","1000μM Glutamate + 5μM MNI-137, Time 1.15 s",-0.06369
same,"Cross Correlation, Mean","1000μM Glutamate + 5μM MNI-137, Time 1.2 s",-0.0627
same,"Cross Correlation, Mean","1000μM Glutamate + 5μM MNI-137, Time 1.3 s",-0.05443
same,"Cross Correlation, Mean","1000μM Glutamate + 5μM MNI-137, Time 1.35 s",-0.05075
same,"Cross Correlation, Mean","1000μM Glutamate + 5μM MNI-137, Time 1.4 s",-0.05008
same,"Cross Correlation, Mean","1000μM Glutamate + 5μM MNI-137, Time 1.45 s",-0.0474
same,"Cross Correlation, Mean","1000μM Glutamate + 5μM MNI-137, Time 1.5 s",-0.04472
same,"Cross Correlation, Mean","1000μM Glutamate + 5μM MNI-137, Time 1.55 s",-0.04463
same,"Cross Correlation, Mean","1000μM Glutamate + 5μM MNI-137, Time 1.65 s",-0.03966
same,"Cross Correlation, Mean","1000μM Glutamate + 5μM MNI-137, Time 1.7 s",-0.03894
same,"Cross Correlation, Mean","1000μM Glutamate + 5μM MNI-137, Time 1.75 s",-0.03942
same,"Cross Correlation, Mean","1000μM Glutamate + 5μM MNI-137, Time 1.8 s",-0.03907
same,"Cross Correlation, Mean","1000μM Glutamate + 5μM MNI-137, Time 1.9 s",-0.0321
same,"Cross Correlation, Mean","1000μM Glutamate + 5μM MNI-137, Time 1.95 s",-0.034
same,CRD dynamics by cross-correlation of donor and acceptor intensities,5 μM modulator with 15 μM and 1 mM glutamate,glutamate concentration-dependent increase in the CRD dynamics
same,CRD dynamics by cross-correlation of donor and acceptor intensities,"5 μM modulator, absence of glutamate",reduced CRD dynamics
